Drawing on PubChem BioAssay (NCI), this text covers TGI and GI50 for 15 compounds.

Test in all cases: growth of human tumour cells (NCI), 48 h
The subject of assay [1] is SNB-75 CNS.
The test system of assay [2] is HT29 colon.
The test system of assay [3] is KM12 colon.
In assay [4] the test system is SR leukemia.
Assay [5] concerns SF-268 CNS.
Assay [6] has as its system CCRF-CEM leukemia.
In assay [7] the test system is OVCAR-8 ovarian.
The test system of assay [8] is NCI-H226 lung.
For assay [9], the system named is NCI/ADR-RES ovarian.

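Five compound concentrations were applied to cells in 96-well plates for 48 hours; endpoints were derived by simple linear interpolation of the resulting dose-response curve. GI50 marks 50% less growth. TGI: concentration producing complete growth inhibition.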

As to `COc1c(O)c2c3c(cc(C)cc3c1C(C)C)OC2`, the TGI in assay [1], in [2], in assay [3], in assay [4], in assay [5] and in [6] was over 100 µM in each case. In addition, the TGI in assay [7] and in [8] was over 100 µM in each case.
Take `CCOC(C[C@H](O[Si](C)(C)C(C)(C)C)[C@H]1COC(=S)S1)OCC`: the TGI in [2] was 41.9 µM; in assay [3], over 100 µM; in [4], over 100 µM; in assay [5], over 100 µM; in [6] it was over 100 µM; in assay [7], over 100 µM. The compound also yielded a TGI in [8] of over 100 µM.
Take `COc1cc2ccnc3c2c(c1OC)-c1coc(SC)c1-3`: the TGI is 79.3 µM in assay [1]; over 100 µM in [2]; over 100 µM in assay [3]; over 100 µM in assay [4]; over 100 µM in [5]; over 100 µM in assay [7].
As to `CCCCCCCCCCCCCCCC(=O)OCC1OC(n2cc(F)c(=O)[nH]c2=O)C(N)C(O)C1O` (stereo not given), the TGI in assay [1] turned out to be 38.6 µM; in assay [2], 42.1 µM; in assay [3], 33.3 µM; in assay [5], 35.2 µM; in [6], 31.7 µM; in [7], 37.1 µM. Besides, the TGI in assay [8] turned out to be 35.9 µM.
`COc1cc2c[n+](C)c3c4cc(OC)c(OC(C)C)cc4ccc3c2cc1OC`: the TGI in assay [1], in [2], in assay [3], in assay [4], in assay [5] and in assay [6] was over 100 µM throughout. The TGI in assay [7] and in [8] was over 100 µM in each case.
For the compound `CCCCCCC[CH2][Sn]([CH2]CCCCCCC)([O]c1cccc2cccnc12)[O]c1cccc2cccnc12`, the GI50 was 2.74 µM in assay [1]; 2.04 µM in assay [2]; 1.91 µM in assay [3]; 2.68 µM in [5]; 0.506 µM in assay [6]; 2.39 µM in [7]. Further, the GI50 in assay [8] is 2.24 µM. Further, the TGI in assay [1] was 9.53 µM; in assay [2] it was 3.94 µM; in assay [3], 4.19 µM; in [5], 10.7 µM; in [6], 3.25 µM; in assay [7], 10.4 µM. Moreover, the TGI in [8] came out at 5.53 µM.
In the case of `CN(C(=O)C12C3C4C1C1C2C3C41C(N)=O)C(C)(C)C` (stereo not given), the TGI in assay [1], in assay [2], in [3], in assay [4], in assay [5] and in assay [6] was over 100 µM each time. For the same compound, the TGI in [7] and in assay [8] was over 100 µM in each case.
For `O=[N+]([O-])c1ccc(-n2nnc(C3=NCCN3)c2-c2ccccc2)cc1`, the TGI in assay [1], in assay [2], in assay [3], in [4], in [5] and in [6] was over 100 µM each time. For the same compound, the TGI in assay [7] and in assay [8] was over 100 µM in each case.
As to `CC1=NN(C(=O)c2ccccc2O)C(=O)/C1=C/c1ccc(O)cc1`, the TGI in [1] was over 100 µM; in [2], over 100 µM; in assay [3] it was over 100 µM; in assay [9], 28.3 µM; in [4], over 100 µM; in assay [5], over 100 µM. The results for the TGI in [6], in assay [7] and in assay [8] were over 100 µM, over 100 µM and 41.2 µM, respectively.
In the case of `C=C1CC2OC(=O)C(=C)C2C(O)C2C(=C)CCC12` (stereo not given), the TGI in [1] turned out to be 21.5 µM; in [2], 15.1 µM; in [3], 22.6 µM; in [4], 14 µM; in assay [5], 32.3 µM; in [6] it was 10.2 µM. In addition, the TGI in assay [7] was 18 µM; in assay [8], 35.5 µM.
Turning to `N/N=C(/C(=O)Nc1cccc(Cl)c1)C(C(=O)c1ccc(O)cc1O)C1OC(=O)c2ccccc21` (stereo not given), the TGI in assay [2], in [3], in assay [4], in assay [5], in [6] and in assay [7] was over 100 µM throughout. Besides, the TGI in [8] is over 100 µM.
Regarding `CC(=O)[CH-]C(=O)c1ccccc1.CC(=O)[CH-]C(=O)c1ccccc1.CC[O-].CC[O-].[Hf+4]`, the GI50 was over 100 µM in assay [1]; over 100 µM in [2]; over 100 µM in assay [3]; over 100 µM in assay [5]; 69.1 µM in assay [6]; over 100 µM in [7]. The GI50 in [8] is over 100 µM. The TGI in assay [1], in assay [2], in assay [3], in assay [5], in [6] and in assay [7] was over 100 µM throughout. This compound also had a TGI in [8] of over 100 µM.
On to `Cc1nc(Nc2ccccc2)sc1C(=O)CC(=O)C(=O)Nc1c(C(C)C)cccc1C(C)C`, for which the TGI in assay [2], in [3], in assay [4], in [5], in assay [6] and in assay [7] was over 100 µM each time. The compound also gave a TGI in [8] of over 100 µM.
For the compound `Cc1ccccc1C1OC(=O)c2ccc3ccccc3c21` (stereo not given), the TGI in assay [1] was 31.3 µM; in assay [2] it was over 31.6 µM; in assay [3], 13.7 µM; in assay [4] it was 7.96 µM; in [5], 14.8 µM; in assay [6], 17.6 µM. Moreover, the TGI in assay [7] amounted to 12.8 µM; in assay [8] it was 12.2 µM.
For the compound `CCOC(=O)CC[C@H](NC(=O)c1nc[nH]c1[N+](=O)[O-])C(=O)OCC`, the TGI in assay [3], in [4], in assay [5], in assay [6], in [7] and in assay [8] was over 100 µM in each case.
